# Laboratory results published in patent US6054474A, “Heterocyclic compounds for the treatment of pain and use thereof” (Biochem Pharma, Inc., priority 1995, dated 2000).
# How the values were obtained:
# mice [1] = test: Hot Plate Assay in mice; format: in vivo
# Protocol: (§1) Antinociceptive activity of compounds of the invention was determined in vivo in a PBQ writhing model and in the hot plate test in rodents. Inhibition of PBQ (phenyl-.rho.-benzoquinone) induced writhing in mice is an assessment of both central and peripherally-mediated analgesia. For experimental protocol see Sigmund et al., Proc. Soc. Ex. Biol. Med., 95, p. 729 (1957) which is incorporated herein by reference. Centrally-mediated analgesia was determined by the inhibition of a hot plate response in mice. For experimental protocol see G. Woolfe and A. Macdonald, J. Pharmacol. Exp. Ther., 80, p. 300 ([…]) which is incorporated herein by reference. Assays measuring opioid receptor binding affinities for μ, δ and κ receptors as well as GPI and MVD assays were determined through experimental protocol set out in Schiller et al., Biophys. Res. Commun., 85, p. 1322 (1975); Rothman et al, Peptides, Vol 11, pp 311-331, 1990; Kaffa et al, Peptides 15(3), 401-404, 1994; Fowler et al, Neurochem. Int 24(5), 401-426, 1994; and Leslie F., Pharmacological Review 39(3), 197-249, 1987 incorporated herein by reference.
# For this test, CD #1 male mice (Charles River) weighing between 20-25 grams were used. The mice were weighed, identified, and randomized into groups of 10.
# The mice were usually treated by subcutaneous injection of the compound (or the standard or vehicle) or by oral gavage.
# The mice were evaluated individually for a latency reaction time on the hot plate. The temperature of the hot plate (Sorel, model DS37) was set at 55° C. […] The reaction time was recorded when one of these signs was noted. The cut off for latency response was 15 seconds so as to prevent damage to the paw tissue. […] The time intervals are typically 30, 60 or 120 minutes (or other).
# For each time reading, the average reaction time of the control group was multiplied by 1.5. The reaction time of each treated animal was compared to the "control average×1.5".
# mice [2] = test: Phenylquinone (PBQ) Writhing Assay; format: in vivo
# Protocol: as §1
# Phenylquinone Writhing Assay
# The test was performed using CD #1 male mice (Charles River) weighing between 19 and 25 g. Animals were maintained in constant conditions of light, temperature and humidity. The animals were acclimatized for three days prior to experimentation. […]
compound,measurement,setting,value
"CC12CCCCSC(Cc3ccc(O)cc31)C2N (centres unmarked) [compound #9, 5,6,7,8,9,11,12-heptahydro-3-hydroxy-5-methyl-10-thia-5,11 methanobenzocyclodecen-13-amine]",latency response time,"mice [1]; 2.5 mg/kg, subcutaneous, after 15 minutes (FIG. 1)",almost maximum
same,reaction time,"mice [1]; 5 mg/kg, subcutaneous (FIG. 1), control approximately 7 seconds",about 19 seconds
same,"latency response to radiant heat, dose dependence",mice [1]; subcutaneous (FIG. 1),dose dependent latency response
same,inhibition of the writhing response (PBQ),mice [2]; oral administration one hour prior to PBQ (FIG. 2),dose-dependent inhibition
same,inhibition of the writhing response (PBQ),mice [2]; s.c. administration twenty minutes prior to PBQ (FIG. 3),dose-dependent inhibition
